Measurements: patent US20130217579A1, “Pesticide Preparations Containing N-Substituted 2-Pyrrolidone-4-Carboxylic Acid Esters” (CLARIANT FINANCE (BVI) LIMITED, priority 2010, published 2013)

Assay: Solubilities of pesticides in compounds of formula (1)
Format: physicochemical
Protocol: The solubilities of various pesticides were determined in various compounds of formula (1) at 25° C. All data are in % by weight (Table 1).

Question: What does the source list for CCCCOC(=O)C1CC(=O)N(C)C1 (centres unmarked) [Example 3, N-butyl N-methyl-2-pyrrolidone-4-carboxylate]?
Answer: Solubility of Pendimethalin in compound of formula (1): 38.9 % by weight; Solubility of Tebuconazole in compound of formula (1): 37.0 % by weight; Solubility of Triadimefon in compound of formula (1): 43.0 % by weight; Solubility of Trifloxystrobin in compound of formula (1): 30.1 % by weight; Solubility of Trifluralin in compound of formula (1): 57.4 % by weight
